The subject of data set [1] is E-cadherin. The experiment in a line: Immunoblot of E-cadherin expression in 4T1.2 cells (EMT). Type of data set: cell-based, mouse. The note with it: 100nM and 1μM, 96h. In general terms: A western blot detects proteins with antibodies after separation by electrophoresis.
For data set [2], the system named is breast cancer MDA-MB-231 cells (乳腺癌MDA-MB-231细胞). The experiment in a line: Cell scratch (migration) assay, MDA-MB-231. Type of data set: cell-based, human. Conditions: MDA-MB-231, scratch assay, concentration-dependent.
Data set [3] concerns Snail. The experiment in a line: Immunoblot of Snail expression in 4T1.2 cells (EMT). The class given is cell-based, mouse. Conditions: 100nM and 1μM, 96h.
The target of data set [4] is T1, recombinant human legumain (重组人legumain蛋白(rhLegumain)) (Homo sapiens, UniProt Q99538).
T1 construct: 30ng/μl活化的rhLegumain在测定缓冲液; purchased 2199-CY
T1 sequence (Q99538 18-323 limits assumed): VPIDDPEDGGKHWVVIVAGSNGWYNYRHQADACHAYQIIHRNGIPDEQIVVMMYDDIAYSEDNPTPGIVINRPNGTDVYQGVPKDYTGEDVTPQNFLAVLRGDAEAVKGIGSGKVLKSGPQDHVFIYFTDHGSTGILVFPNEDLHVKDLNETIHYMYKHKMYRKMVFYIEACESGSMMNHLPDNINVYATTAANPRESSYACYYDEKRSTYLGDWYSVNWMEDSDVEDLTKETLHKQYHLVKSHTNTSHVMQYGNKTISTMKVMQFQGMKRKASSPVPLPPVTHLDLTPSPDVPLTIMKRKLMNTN
Put plainly: AEP activity assay with recombinant human legumain, substrate Z-AAN-AMC. Type of data set: biochemical. The note with it: Fig. 2E.

The test system of data set [5] is mouse highly metastatic breast cancer cells 4T1.2 (小鼠高转移性乳腺癌细胞4T1.2).
In data set [6] the test system is 4T1.2 cells (4T1.2细胞). Put plainly: Cell scratch (migration) assay, 4T1.2. Type of data set: cell-based, mouse. The note with it: 4T1.2, scratch assay, concentration-dependent.
Data set [7] concerns osteoclasts (破骨细胞). The experiment in a line: TRAP staining (osteoclasts) of bone sections in mouse bone metastasis model. The class given is in vivo. The note with it: Fig. 7N.
Data set [8] concerns breast cancer 4T1.2 cells (乳腺癌4T1.2细胞). The experiment in a line: Transwell Matrigel invasion assay, 4T1.2. The class given is cell-based, mouse. The note with it: 4T1.2, Transwell Matrigel, 12h, concentration-dependent.
The subject of data set [9] is AEP (breast cancer 4T1.2 cells, 乳腺癌4T1.2细胞). The experiment in a line: Immunoblot of AEP expression in 4T1.2 cells. Type of data set: cell-based, mouse. Conditions: 1 μM, 96h, vs control (0nM), p<0.05.
In data set [10] the test system is breast cancer 4T1.2 cells (乳腺癌4T1.2细胞). The experiment in a line: Survival of BALB/C mice with subcutaneous 4T1.2 tumors. Conditions: inhibitor given in combination with 0.44mg/ml epirubicin. The class given is in vivo, mouse.
Data set [11] deals with T2, endogenous AEP of 293L cells (293L细胞, AEP的内源性酶活性) (Homo sapiens, UniProt Q99538).
T2 construct: 验证抑制剂是否能有效抑制AEP的内源性酶活性; endogenous in cells; host or cells: 293L cells
T2 sequence (Q99538 18-433): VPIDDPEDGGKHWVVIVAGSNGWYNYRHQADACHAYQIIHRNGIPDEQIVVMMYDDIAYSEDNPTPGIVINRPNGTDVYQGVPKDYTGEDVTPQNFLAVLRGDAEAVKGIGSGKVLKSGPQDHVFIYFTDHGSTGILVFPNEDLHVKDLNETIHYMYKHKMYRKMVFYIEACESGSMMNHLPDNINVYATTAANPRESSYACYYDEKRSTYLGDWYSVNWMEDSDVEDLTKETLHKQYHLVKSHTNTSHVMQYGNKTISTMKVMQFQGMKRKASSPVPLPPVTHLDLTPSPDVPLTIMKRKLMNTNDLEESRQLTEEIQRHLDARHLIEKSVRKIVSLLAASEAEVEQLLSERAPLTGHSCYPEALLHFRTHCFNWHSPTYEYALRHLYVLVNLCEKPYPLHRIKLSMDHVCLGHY
Put plainly: Endogenous AEP activity in cell lysate and medium of 293L cells. Type of data set: cell-based. The note with it: 293L cells cultured with different doses of inhibitor.

In data set [12] the test system is MMP-9. The experiment in a line: Immunoblot of MMP-9 expression in 4T1.2 cells (EMT). The class given is cell-based, mouse. Conditions: 100nM and 1μM, 96h.
Data set [13] concerns human breast cancer cells MDA-MB-231 (人乳腺癌细胞MDA-MB-231).
The subject of data set [14] is breast cancer 4T1.2-luc cells (乳腺癌4T1.2-luc细胞). Put plainly: HE staining of bone sections in mouse bone metastasis model. Conditions: 0.44mg/ml epirubicin alone; Fig. 7H. Type of data set: in vivo.
Data set [15] has the same test system. Put plainly: X-ray CT of hind limb bones in mouse bone metastasis model. The note with it: 0.44mg/ml epirubicin alone, i.p. The class given is in vivo.
The test system is the same in data set [16]. Put plainly: Bioluminescence imaging in mouse breast cancer bone metastasis model. The class given is in vivo. Conditions: 0.44mg/ml epirubicin alone, i.p., 5ml/kg, every 3 days.

On to “CH2CH[N(CH2CH3)2]CON(COCH2Cl)CH2CONH2 [化合物①]”, for which, in data set [1], the E-cadherin expression entry is “表达上调”. Further, the cell migration ability entry in [2] and in [6] was “减弱” each time. Besides, the Snail expression entry in [3] was “表达下调”. The “AEP enzyme activity over time” value in [4] (100nM inhibitor vs control (0nM), p<0.05, pH5.0) is “显著抑制”; in data set [4] (1 μM inhibitor vs control (0nM), p<0.01, pH5.0) it was “显著抑制”. Also, the “cell viability / growth compared with control” value in [5] and in data set [13] was “与对照组相差很小” in each case. The “increase in osteoclast number in the control group compared with the 2 inhibitor-treated groups” value in data set [7] (control (PBS) relative to groups given epirubicin + inhibitor) is recorded as 4 倍 (fold). The “number of invading cells” value in data set [8] was “减少各细胞的侵袭细胞数目”. Moreover, the “decrease of AEP expression” value in data set [9] is on record as 82.31%. For the same compound, the “survival of tumor mice” value in data set [10] is reported as “明显延长”. The “AEP enzyme activity in cell culture medium” value in data set [11] is “能够以剂量依赖性方式抑制”. Moreover, in data set [12], the MMP-9 expression entry is “表达下调”.
`COc1cccc2c1C(=O)c1c(O)c3c(c(O)c1C2=O)C[C@@](O)(C(=O)CO)C[C@@H]3O[C@H]1C[C@H](N)[C@@H](O)[C@H](C)O1` [表柔比星]: the “tumor cell invasion of bone tissue (HE staining)” value in data set [14] was “肿瘤细胞突破了骨组织,呈现侵袭状”. For the same compound, in [7] (0.44mg/ml epirubicin alone), the “increase in osteoclast number in the epirubicin group compared with the 2 inhibitor-treated groups” value is on record as 3.6 倍 (fold). In data set [15], the “bone structure and bone erosion (X-ray CT)” value is given as “骨结构不完整,存在骨侵蚀”. In addition, the “bone tumor growth (bioluminescence)” value in data set [16] is given as “所有小鼠的胫骨近端、股骨或背侧脊柱都有肿瘤生长”.

The values are drawn from patent CN114573468A, “蛋白抑制剂及其应用” (priority 2022, dated 2022).
